According to PubChem BioAssay AID1963833 (Molecular Pharmacology Branch, DTP, NCI, 2024):

Tested on: 883617-216-R-J1-PDC complex spheroid viability
Assay: Anticancer human tumor 883617-216-R-J1-PDC patient-derived bladder carcinoma cell line growth inhibition [POLQ]
Details: for IC50: curve of first compound; for viability, T/C: stronger effect = lower value
Outline: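 Three-cell-type spheroids modelling solid tumor plus stroma served as the readout system; POL inhibitors were tested individually and in combination, concentration ranges set by clinical Cmax where known.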
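Further: spheroids exposed to compounds for seven days before readout.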
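Wherever viability, T/C is given: 100% = DMSO vehicle control viability.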

Q: For CC(=O)O[C@H]1C(=O)[C@@]2(C)[C@H]([C@H](OC(=O)c3ccccc3)[C@]3(O)C[C@H](OC(=O)[C@H](O)[C@@H](NC(=O)c4ccccc4)c4ccccc4)C(C)=C1C3(C)C)[C@]1(OC(C)=O)CO[C@@H]1C[C@@H]2O + Cc1cccc(N(C)C(=O)C2C(O)CCN2c2nc(C)cc(C(F)(F)F)c2C#N)c1, which IC50 (second compound 0.0316 µM) is on record?
A: < 9.49 nM

Q: What about the IC50 (second compound 0.1 µM) of the same compound?
A: < 9.49 nM

Q: And the IC50 (second compound 0.316 µM)?
A: 10.4 nM

Q: And the IC50 (second compound 1 µM)?
A: < 9.49 nM

Q: And the IC50 (second compound 3.16 µM)?
A: < 9.49 nM

Q: What about the IC50 (second compound 10 µM) of the same compound?
A: 11.1 nM

Q: And the viability, T/C (second compound 0.0316 µM, first compound 0.00949 µM)?
A: 40.2%

Q: And the viability, T/C (second compound 0.0316 µM, first compound 0.03 µM)?
A: 22.1%

Q: And the viability, T/C (second compound 0.0316 µM, first compound 0.0949 µM)?
A: 22%

Q: And the viability, T/C (second compound 0.0316 µM, first compound 0.3 µM)?
A: 19.8%

Q: What about the viability, T/C (second compound 0.0316 µM, first compound 0.949 µM) of the same compound?
A: 18.5%

Q: What about the viability, T/C (second compound 0.0316 µM, first compound 3 µM) of the same compound?
A: 23.1%

Q: What about the viability, T/C (second compound 0.1 µM, first compound 0.00949 µM) of the same compound?
A: 46.9%

Q: And the viability, T/C (second compound 0.1 µM, first compound 0.03 µM)?
A: 29.2%

Q: And the viability, T/C (second compound 0.1 µM, first compound 0.0949 µM)?
A: 21.6%

Q: What about the viability, T/C (second compound 0.1 µM, first compound 0.3 µM) of the same compound?
A: 27.5%

Q: And the viability, T/C (second compound 0.1 µM, first compound 0.949 µM)?
A: 24.6%

Q: And the viability, T/C (second compound 0.1 µM, first compound 3 µM)?
A: 26.7%

Q: And the viability, T/C (second compound 0.316 µM, first compound 0.00949 µM)?
A: 52.2%

Q: And the viability, T/C (second compound 0.316 µM, first compound 0.03 µM)?
A: 25.1%

Q: And the viability, T/C (second compound 0.316 µM, first compound 0.0949 µM)?
A: 24.4%

Q: What about the viability, T/C (second compound 0.316 µM, first compound 0.3 µM) of the same compound?
A: 23.9%

Q: And the viability, T/C (second compound 0.316 µM, first compound 0.949 µM)?
A: 20.8%

Q: And the viability, T/C (second compound 0.316 µM, first compound 3 µM)?
A: 24.8%

Q: What about the viability, T/C (second compound 1 µM, first compound 0.00949 µM) of the same compound?
A: 45.4%

Q: What about the viability, T/C (second compound 1 µM, first compound 0.03 µM) of the same compound?
A: 29.2%

Q: And the viability, T/C (second compound 1 µM, first compound 0.0949 µM)?
A: 22.4%

Q: What about the viability, T/C (second compound 1 µM, first compound 0.3 µM) of the same compound?
A: 18.9%

Q: What about the viability, T/C (second compound 1 µM, first compound 0.949 µM) of the same compound?
A: 26.1%

Q: And the viability, T/C (second compound 1 µM, first compound 3 µM)?
A: 28.2%

Q: What about the viability, T/C (second compound 3.16 µM, first compound 0.00949 µM) of the same compound?
A: 44.1%

Q: And the viability, T/C (second compound 3.16 µM, first compound 0.03 µM)?
A: 24.4%

Q: What about the viability, T/C (second compound 3.16 µM, first compound 0.0949 µM) of the same compound?
A: 32.5%

Q: What about the viability, T/C (second compound 3.16 µM, first compound 0.3 µM) of the same compound?
A: 27.6%

Q: What about the viability, T/C (second compound 3.16 µM, first compound 0.949 µM) of the same compound?
A: 41.8%

Q: And the viability, T/C (second compound 3.16 µM, first compound 3 µM)?
A: 28.9%

Q: And the viability, T/C (second compound 10 µM, first compound 0.00949 µM)?
A: 54.7%

Q: What about the viability, T/C (second compound 10 µM, first compound 0.03 µM) of the same compound?
A: 19.3%

Q: What about the viability, T/C (second compound 10 µM, first compound 0.0949 µM) of the same compound?
A: 21.2%

Q: And the viability, T/C (second compound 10 µM, first compound 0.3 µM)?
A: 25.3%

Q: What about the viability, T/C (second compound 10 µM, first compound 0.949 µM) of the same compound?
A: 21.4%

Q: And the viability, T/C (second compound 10 µM, first compound 3 µM)?
A: 15.6%

Q: Which results are given for CC[C@@]1(O)C(=O)OCc2c1cc1n(c2=O)Cc2cc3c(CN(C)C)c(O)ccc3nc2-1 + Cc1cccc(N(C)C(=O)C2C(O)CCN2c2nc(C)cc(C(F)(F)F)c2C#N)c1?
A: IC50 (second compound 0.0316 µM): > 100 nM; IC50 (second compound 0.1 µM): > 100 nM; IC50 (second compound 0.316 µM): > 100 nM; IC50 (second compound 1 µM): > 100 nM; IC50 (second compound 3.16 µM): > 100 nM; IC50 (second compound 10 µM): > 100 nM; viability, T/C (second compound 0.0316 µM, first compound 0.000316 µM): 96.3%; viability, T/C (second compound 0.0316 µM, first compound 0.001 µM): 85.8%; viability, T/C (second compound 0.0316 µM, first compound 0.00316 µM): 96.1%; viability, T/C (second compound 0.0316 µM, first compound 0.01 µM): 79.3%; viability, T/C (second compound 0.0316 µM, first compound 0.0316 µM): 57.5%; viability, T/C (second compound 0.0316 µM, first compound 0.1 µM): 54.1%; viability, T/C (second compound 0.1 µM, first compound 0.000316 µM): 101%; viability, T/C (second compound 0.1 µM, first compound 0.001 µM): 93.3%; viability, T/C (second compound 0.1 µM, first compound 0.00316 µM): 83.7%; viability, T/C (second compound 0.1 µM, first compound 0.01 µM): 81.5%; viability, T/C (second compound 0.1 µM, first compound 0.0316 µM): 58%; viability, T/C (second compound 0.1 µM, first compound 0.1 µM): 61.4%; viability, T/C (second compound 0.316 µM, first compound 0.000316 µM): 102%; viability, T/C (second compound 0.316 µM, first compound 0.001 µM): 106%; viability, T/C (second compound 0.316 µM, first compound 0.00316 µM): 87.6%; viability, T/C (second compound 0.316 µM, first compound 0.01 µM): 68.7%; viability, T/C (second compound 0.316 µM, first compound 0.0316 µM): 64.6%; viability, T/C (second compound 0.316 µM, first compound 0.1 µM): 64.4%; viability, T/C (second compound 1 µM, first compound 0.000316 µM): 99.5%; viability, T/C (second compound 1 µM, first compound 0.001 µM): 113%; viability, T/C (second compound 1 µM, first compound 0.00316 µM): 97.1%; viability, T/C (second compound 1 µM, first compound 0.01 µM): 83.1%; viability, T/C (second compound 1 µM, first compound 0.0316 µM): 63.8%; viability, T/C (second compound 1 µM, first compound 0.1 µM): 62.8%; viability, T/C (second compound 3.16 µM, first compound 0.000316 µM): 100%; viability, T/C (second compound 3.16 µM, first compound 0.001 µM): 103%; viability, T/C (second compound 3.16 µM, first compound 0.00316 µM): 98%; viability, T/C (second compound 3.16 µM, first compound 0.01 µM): 88.4%; viability, T/C (second compound 3.16 µM, first compound 0.0316 µM): 66.9%; viability, T/C (second compound 3.16 µM, first compound 0.1 µM): 61.8%; viability, T/C (second compound 10 µM, first compound 0.000316 µM): 112%; viability, T/C (second compound 10 µM, first compound 0.001 µM): 94.6%; viability, T/C (second compound 10 µM, first compound 0.00316 µM): 105%; viability, T/C (second compound 10 µM, first compound 0.01 µM): 79.5%; viability, T/C (second compound 10 µM, first compound 0.0316 µM): 67.7%; viability, T/C (second compound 10 µM, first compound 0.1 µM): 71%
